What was measured:
[1] = system: human gastric mucosal epithelial cell line GES-1; assay: Proliferation of GES-1 cells (CCK8, 48 hours); type: cell-based; details: for effect on the proliferation of GES-1: 25 μM to 400 μm, 48 hours
Description: (§1) At 37° C. and 5% CO2, human gastric cancer cell line HGC-27 cells and human gastric mucosal epithelial cell line GES-1 cells (coming from China Center for Type Culture Collection (Wuhan, China)) are respectively cultured in RPMI Medium Modified (Hyclone, SH30809.01) and Dulbecco's Modified Eagle's Medium-high glucose (Sigma, D6429), in which 10% fetal calf serum (Gibco, 10270-106) and 1% penicillin-streptomycin (Gibco, 15140-122) are supplemented.
The cytotoxicity of GES-1 cells by trans-1,3-dilinolein is determined. 10000 cells are plated in a 96-well plate, and each well is added with 100 μL medium. 12 hours after cell attachment, each well is given 100 μL normal medium that contained different concentrations (0 μM, 6.25 μM, 12.5 μM, 25 μM, 50 μM, 100 μM, 200 μM, 400 μM, 800 μM, 1000 μM) of trans-1,3-dilinolein and had been preheated, and cultured in incubators under the conditions of 5% CO2, 37° C., normal oxygen and 1% oxygen respectively for 48 hours. The medium in each well is drawn, and serum-free medium is added into each well to formulate 60 μL CCK8 (ABMole BioScience) at 1/11 the initial concentration, which are correspondingly incubated in incubators under the conditions of 5% CO2, 37° C., normal oxygen and 1% oxygen for 40 minutes. The absorbance at 450 nm is determined with a microplate reader (Thermo Scientific).
(§2) Two-side Student's t-test is conducted by using EXCEL to determine the statistical significance of two groups of measurements. P value<0.05 is considered to be statistically significant. Unless otherwise specified, all data are expressed as mean ±standard deviation.

[2] = system: human gastric cancer cell line HGC-27; assay: Cytotoxicity to HGC-27 cells (MTS, 48 hours); type: cell-based; details: for killing of gastric cancer cells: concentration of 300 μm and more; for killing effect on HGC-27: 0-500 μM, 48 hours
Description: as §1
The cytotoxicity of HGC-27 cells by trans-1,3-dilinolein is determined. 5000 cells are plated in a 96-well plate, and each well is added with 100 μL medium. 12 hours after cell attachment, each well is given 100 μL normal medium that contained different concentrations (0 μM, 50 μM, 100 μM, 200 μM, 300 μM, 400 μM, 500 μM) of trans-1,3-dilinolein and had been preheated, and cultured in incubators under the conditions of 5% CO2, 37° C., normal oxygen and 1% oxygen respectively for 48 hours. The medium in each well is drawn, and serum-free medium is added into each well to formulate 60 μL MTS (Promega) at ⅙ the initial concentration, which are correspondingly incubated in incubators under the conditions of 5% CO2, 37° C., normal oxygen and 1% oxygen for 2 hours. The absorbance at 490 nm is determined with a microplate reader (Thermo Scientific).
as §2

CCCCC/C=C/C/C=C/CCCCCCCC(=O)OCC(O)COC(=O)CCCCCCC/C=C/C/C=C/CCCCC [trans-1,3-dilinolein, [2-hydroxy-3-[(9E,12E)-octadeca-9,12-dienoyl]oxypropyl](9E,12E)-octadeca-9,12-dienoate]
proliferation of normal gastric mucosal epithelial cells ([1]; concentration of 300 μm and more): significantly promote the proliferation | effect on the proliferation of GES-1 ([1]; hypoxic (1% oxygen), FIG. 4B): promotion effects on the proliferation | effect on the proliferation of GES-1 ([1]; normal oxygen, FIG. 4A): promotion effects on the proliferation | killing of gastric cancer cells ([2]; hypoxic conditions compared with normal oxygen): the killing effect is more significant | killing of gastric cancer cells ([2]; normal oxygen): kills gastric cancer cells significantly | killing effect on HGC-27 ([2]; hypoxic (1% oxygen) compared with normal oxygen, FIG. 4D): stronger killing effect | killing effect on HGC-27 ([2]; normal oxygen, FIG. 4C): concentration-dependent killing effect
